Measurements from patent US9409944B2, “Compositions and methods for inhibiting proteases” (The Regents of the University of California, priority 2011, dated 2016).

Experiments:
[1] = tested on: human lung adenocarcinoma (H460) cells; test: Cytotoxicity to human lung adenocarcinoma (H460) cells; assay type: cell-based; details: NCI-H460
Text: (§1) We discovered the new natural products, compounds having formulas 1 and 2, from a collection of marine cyanobacteria obtained from Curaçao in the Netherland Antilles. We were led to isolate this compound from cancer cell toxicity of the extract and semi-purified fractions.

[2] = biological target: beta 5 subunit (chymotrypsin-like) of the Saccharomyces cerevisiae 20S proteasome (Saccharomyces cerevisiae, UniProt P30656); test: Inhibition of the beta 5 subunit (chymotrypsin-like) of the 20S proteasome; assay type: biochemical; details: S. cerevisiae 20S proteasome, pure compound
Text: as §1

Structure (SMILES)	EC50 [1] [nM]	IC50 [2] [nM]
CCCCCC(=O)N[C@H](C(=O)N[C@@H](CC[S+](C)[O-])C(=O)N[C@@H](CC(C)C)C(=O)[C@@]1(C)CO1)C(C)C (mixture of isomers) [Compound 1]	14.5	5.3 ± 0.5
C[C@@]12OC(=O)[C@]1([C@@H](O)[C@@H]1C=CCCC1)NC(=O)[C@@H]2CCCl [salinosporamide A, reference compound]	–	1.4 ± 0.2
